# Laboratory results as given in US20060014709A1, “Drug or cosmetic” (priority 2002, published 2006).
# Read-outs that look alike come from different tables or passages of the source.
# Test system: human peripheral blood T lymphocytes / cytotoxic macrophages
# Format: cell-based
# Text: Another embodiment of the method for screening a compound which can prevent, mitigate or treat renal glomerular lesions, lesions of pancreatic islets of Langerhans or epidermal lesions include a method for screening a compound in the presence of which a number of produced cytotoxic macrophages is decreased, comprising the steps of (i) inducing cytotoxic macrophages by cultivating human peripheral blood mononuclear cells in RPMI 1640 medium in the presence of lipopolysaccharide and human AB type serum; (ii) at the same time, inducing unfractionated T lymphocytes by cultivating human peripheral blood unfractionated T lymphocytes with or without lipopolysaccharide in the presence of the test compound; (iii) bringing the cytotoxic macrophages obtained in (i) into contact with monolayered autologous erythrocytes in the presence of the unfractionated T lymphocytes obtained in (ii), and measuring a number of produced cytotoxic macrophages; and (iv) comparing with the number of generated cytotoxic macrophages in the absence of the test compound (for convenience, referred to as screening method C).
# (a) Induction of cytotoxic macrophages is described below. To 2×10^6PBMC floated on RPMI1640 medium containing human normal serum of type AB, 2 mM of L-glutamine and 5 μg/mL of gentamicin, LPS is added so as to make a concentration 80 μg/mL, and the PBMC is cultivated for 6 days at 37° C. under 5% CO2-95% air to induce cytotoxic macrophages. The PBMC is obtained similarly as in the screening method A. The induced cytotoxic macrophages are recovered from the medium. In the recovering, a known method may be used, including a method of collecting adhered materials with a rubber-policeman (rubber spatula). Then, the recovered cytotoxic macrophages may be washed. In washing, a Hanks solution with about 5 μg/mL of gentamicin is preferably used.
# (b) Induction of unfractionated T lymphocytes is described below. First, human peripheral blood unfractionated T lymphocytes is separated as described below. As described in the screening method A, to a PBMC fraction separated by a specific gravity centrifugal method was added sheep erythrocytes treated with neuraminidase and reacted for 20 minutes at 37° C. This solution is gently added to a tube in which Percolls of discontinuous specific gravities are layered, and centrifuged at 400×g for 20 minutes at room temperature. In the layered Percolls of discontinuous specific gravities, fractions of rosetted T lymphocytes and monocytes floating on a layer of not less than d=1.091 are collected respectively. To the fraction of rosetted T lymphocytes is added ammonium chloride to hemolyze the sheep erythrocyte and a fraction of T lymphocytes is obtained. The fraction of monocytes obtained at the same time is washed. […]
smiles,measurement,setting,value
"O=C1CC[C@@](Sc2ccc(Cl)cc2)(C(=O)OCc2ccccc2)O1 (stereo in doubt) [compound (III-1), 2-(4-chlorophenyl)thio-5-oxo-2-tetrahydrofurancarboxylic acid benzyl ester]",induction of regulatory CD2^−CD4^+ T lymphocytes (in words),,induces regulatory CD2^−CD4^+ T lymphocytes
same,Inhibition rate (%) of SPFC positive cells versus T lymphocytes treated with solvent,T lymphocytes treated with 0.1 μg/ml of compound,69.2%
same,Inhibition rate (%) of SPFC positive cells versus T lymphocytes treated with solvent,T lymphocytes treated with 1 μg/ml of compound,53.8%
same,Inhibition rate (%) of SPFC positive cells versus T lymphocytes treated with solvent,T lymphocytes treated with 10 μg/ml of compound,92.3%
